Source: patent US9206200B2, “N-linked lactam M1 receptor positive allosteric mogulators” (Merck Sharp & Dohme Corp., priority 2011, dated 2015)

Molecular target: T1, acetylcholine muscarinic M1 receptor (Homo sapiens, UniProt P11229)
T1 construct: expressed in transfected cells; host or cells: CHOnfat cells (CHO cells with an NFAT reporter) expressing hM1, kept under Geneticin selection
T1 sequence (P11229 1-460): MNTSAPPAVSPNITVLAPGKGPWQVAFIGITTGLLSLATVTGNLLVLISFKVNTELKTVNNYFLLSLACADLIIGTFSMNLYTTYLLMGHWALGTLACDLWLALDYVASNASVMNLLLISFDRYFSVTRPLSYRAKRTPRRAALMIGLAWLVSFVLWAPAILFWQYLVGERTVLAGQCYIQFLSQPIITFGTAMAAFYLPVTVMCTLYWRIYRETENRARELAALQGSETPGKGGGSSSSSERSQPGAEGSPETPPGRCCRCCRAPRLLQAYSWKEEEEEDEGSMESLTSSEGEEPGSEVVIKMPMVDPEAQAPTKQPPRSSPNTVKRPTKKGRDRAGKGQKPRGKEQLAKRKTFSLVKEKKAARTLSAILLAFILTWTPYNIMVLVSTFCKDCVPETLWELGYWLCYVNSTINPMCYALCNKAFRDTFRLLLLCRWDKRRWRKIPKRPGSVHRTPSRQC
Assay: muscarinic FLIPR assay: intracellular calcium in CHOnfat/hM1 cells, potentiation of EC20 acetylcholine
Type: cell-based
Settings: Table 1; CHOnfat/hM1 cells, FLIPR, EC20 acetylcholine (3 nM final); read-out: M1 Pot.
Protocol: The assay studies the effect of one or several concentrations of test compounds on basal or acetylcholine-stimulated Ca^2+ levels using FLIPR.
Compounds are prepared and subjected to a preincubation period of […]. Thereafter, a single EC20 concentration of acetylcholine is added to each well (3 nM final). The intracellular Ca^2+ level of each sample is measured and compared to an acetylcholine control to determine any modulatory activity.
Cells: CHOnfat/hM1, hM2, hM3 or hM4 cells are plated 24 hr before the assay at a density of 18,000 cells/well (100 μL) in a 384 well plate. CHOnfat/hM1 and CHOnfat/hM3 Growth Medium: 90% DMEM (Hi Glucose); 10% HI FBS; 2 mM L-glutamine; 0.1 mM NEAA; Pen-Strep; and 1 mg/ml Geneticin, are added. For M2Gqi5CHOnfat and M4Gqi5CHOnfat cells, an additional 600 ug/ml hygromycin is added.
Equipment: 384 well plate, 120 μl, addition plate; 96-well Whatman 2 ml Uniplate Incubator, 37° C., 5% CO2; Skatron EMBLA-384 Plate Washer; Multimek Pipetting System; Genesis Freedom 200 System; Mosquito System; Temo Nanolitre Pipetting System; and FLIPR^384 Fluorometric Imaging Plate Reader System are used.
Buffers. Assay Buffer: Hanks Balanced Salt Solution, with 20 mM Hepes, 2.5 mM Probenecid (Sigma P-8761) first dissolved in 1 N NaOH, 1% Bovine Serum Albumin (Sigma A-9647). Dye Loading Buffer: Assay Buffer plus 1% Fetal Bovine Serum and Fluo-4AM/Pluronic Acid Mixture. 2 mM Fluo-4AM ester stock in DMSO (Molecular Probes F-14202) Concentration of 2 μM in buffer for a final concentration of 1 μM in Assay. 20% Pluronic Acid Solution stock, with concentration of 0.04% in Buffer, 0.02% in Assay.
65 μL of 2 mM Fluo-4AM are mixed with 130 μL of 20% Pluronic Acid. The resulting solution and 650 μL FBS is added to the assay buffer for a total volume of 65 mL. Positive Controls: 4-Br-A23187: 10 mM in DMSO; final concentration 10 μM. Acetylcholine: 10 mM in water, working stock at both 20 μM and 30 μM in assay buffer, final concentration of 10 μM. This is used to check the maximum stimulation of the CHOK1/hM1 cells. 20 μM (2×) acetylcholine is added in the preincubation part of the assay, and the 30 μM (3×) stock is added in the second part. (EC20)Acetylcholine: 10 mM in water, working stock of 9 nM (3×), and final concentration in assay is 3 nM. This is used after the preincubation with test compounds. Addition of the EC20 Acetylcholine to each well with a test compound will ascertain any modulator activity. 24 wells contain 3 nM Acetylcholine alone as a control.
Determining Activity of Putative Compounds:
Screening Plate Compounds are titrated in 96-well plates (columns 2-11), 100% DMSO, started at a concentration of 15 mM (150× stock concentration), and 3-fold serial dilutions using Genesis Freedom200 System. Four 96-well plates are combined into a 384-well plate using Mosquito Nanolitre Pipetting System by transferring 1 μl of serial diluted compounds to each well, and 1 mM acetylcholine (100× stock concentration) were added as a control. Using Temo, 49 μl assay buffer is added to each well of the 384-well plate right before assay.
In a 96-well Whatman 2 ml Uniplate, 9 nM Acetylcholine (3×) is pipetted into wells corresponding to the screening compounds, and into control wells. The 30 μM acetylcholine control (3×) is added into control wells, and the 3× agonist plate is transferred into a 384 well plate.
Cells are washed three times with 100 μL of buffer, leaving […] of buffer in each well. Using Multimek, 30 μL of Dye Loading Buffer is added into each well and incubated at 37° C., 5% CO2 for up to one hr.
After 60 min, the cells are washed three times with 100 μL of buffer, leaving 30 μL of buffer in each well. The cell plate, screening plate, and agonist addition plates are placed on the platform in the FLIPR and the door closed. A signal test to check background fluorescence and basal fluorescence signal is performed. Laser intensity is adjusted if necessary.

| EC50 [µM] | Structure (SMILES) |
| --- | --- |
| 0.72 | CS(=O)(=O)N1CCN(Cc2cc3c(c4ccccc24)CN(C2CCCCC2O)C3=O)CC1 (stereo not drawn) [Example 15, 2-(2-hydroxycyclohexyl)-5-{[4-(methylsulfonyl)piperazin-1-yl]methyl}-1,2-dihydro-3H-benzo[e]isoindol-3-one] |
| 7.8 | CC1CCCN(Cc2cc3c(c4ccccc24)CN(C2CCCCC2O)C3=O)C1 (stereo not drawn) [Example 16, 2-(2-hydroxycyclohexyl)-5-[(3-methylpiperidin-1-yl)methyl]-1,2-dihydro-3H-benzo[e]isoindol-3-one] |
| 0.32 | O=C1c2cc(CN3CCCC(F)C3)c3ccccc3c2CN1C1CCCCC1O (stereo not drawn) [Example 17, 5-[(3-fluoropiperidin-1-yl)methyl]-2-(2-hydroxycyclohexyl)-1,2-dihydro-3H-benzo[e]isoindol-3-one] |
| 0.16 | O=C1c2cc(CN3CCCC(F)(F)C3)c3ccccc3c2CN1C1CCCCC1O (stereo not drawn) [Example 18, 5-[(3,3-difluoropiperidin-1-yl)methyl]-2-(2-hydroxycyclohexyl)-1,2-dihydro-3H-benzo[e]isoindol-3-one] |
| 0.037 | N#CC1(F)CCN(Cc2cc3c(c4ccccc24)CN([C@H]2CCCC[C@@H]2O)C3=O)CC1 [Example 19, 4-fluoro-1-({2-[(1S,2S)-2-hydroxycyclohexyl]-3-oxo-2,3-dihydro-1H-benzo[e]isoindol-5-yl}methyl)piperidine-4-carbonitrile] |
| 0.093 | N#CC1CCN(Cc2cc3c(c4ccccc24)CN([C@H]2CCCC[C@@H]2O)C3=O)CC1 [Example 20, 1-({2-[(1S,2S)-2-hydroxycyclohexyl]-3-oxo-2,3-dihydro-1H-benzo[e]isoindol-5-yl}methyl)piperidine-4-carbonitriIe] |
| 1.5 | CC1CCN(Cc2cc3c(c4ccccc24)CN([C@H]2CCCC[C@@H]2O)C3=O)CC1 [Example 21, 2-[(1S,2S)-2-hydroxycyclohexyl]-5-[(4-methylpiperidin-1-yl)methyl]-1,2-dihydro-3H-benzo[e]isoindol-3-one] |
| 0.48 | O=C1c2cc(CN3CCC(O)CC3)c3ccccc3c2CN1C1CCCCC1O (stereo not drawn) [Example 22, 2-(2-hydroxycyclohexyl)-5-[(4-hydroxypiperidin-1-yl)methyl]-1,2-dihydro-3H-benzo[e]isoindol-3-one] |
| 3.8 | O=C1c2cc(CN3CCCC3)c3ccccc3c2CN1C1CCCCC1O (stereo not drawn) [Example 23, 2-(2-Hydroxycyclohexyl)-5-(pyrrolidin-1-ylmethyl)-1,2-dihydro-3H-benzo[e]isoindol-3-one] |
| 0.15 | O=C1c2cc(CN3CCOCC3)c3ccccc3c2CN1C1CCCCC1O (stereo not drawn) [Example 24, 2-(2-hydroxycyclohexyl)-5-(morpholin-4-ylmethyl)-1,2-dihydro-3H-benzo[e]isoindol-3-one] |
| 0.012 | O=C1c2cc(CN3CCC(F)(F)CC3)c3ccccc3c2CN1C1CCCCC1O (stereo not drawn) [Example 25, 5-[(4,4-difluoropiperidin-1-yl)methyl]-2-(2-hydroxycyclohexyl)-1,2-dihydro-3H-benzo[e]isoindol-3-one] |
| 0.16 | O=C1c2cc(CN3CCC(F)CC3)c3ccccc3c2CN1C1CCCCC1O (stereo not drawn) [Example 26, 5-[(4-fluoropiperidin-1-yl)methyl]-2-(2-hydroxycyclohexyl)-1,2-dihydro-3H-benzo[e]isoindol-3-one] |
| 0.36 | O=C1c2cc(CN3CCC(C(F)(F)F)CC3)c3ccccc3c2CN1C1CCCCC1O (stereo not drawn) [Example 27, 2-(2-hydroxycyclohexyl)-5-{[4-(trifluoromethyl)piperidin-1-yl]methyl}-1,2-dihydro-3H-benzo[e]isoindol-3-one] |
| 1.2 | O=C1c2cc(CN3CC(O)C(F)C3)c3ccccc3c2CN1C1CCCCC1O (stereo not drawn) [Example 28, 5-[(3-fluoro-4-hydroxypyrrolidin-1-yl)methyl]-2-(2-hydroxycyclohexyl)-1,2-dihydro-3H-benzo[e]isoindol-3-one] |
| 2.7 | O=C1c2cc(CN3CCCC3C(F)(F)F)c3ccccc3c2CN1C1CCCCC1O (stereo not drawn) [Example 30, 2-(2-hydroxycyclohexyl)-5-{[2-(trifluoromethyl)pyrrolidin-1-yl]methyl}-1,2-dihydro-3H-benzo[e]isoindol-3-one] |
| 1.8 | O=C1c2cc(CN3CC[C@H](F)C3)c3ccccc3c2CN1C1CCCCC1O (stereo partly drawn) [Example 32, 5-{[(3S)-3-fluoropyrrolidin-1-yl]methyl}-2-(2-hydroxycyclohexyl) 1,2-dihydro-3H-benzo[e]isoindol-3-one] |
| 0.24 | O=C1c2cc(CN3CCC(F)(F)C3)c3ccccc3c2CN1C1CCCCC1O (stereo not drawn) [Example 33, 5-[(3,3-difluoropyrrolidin-1-yl)methyl]-2-(2-hydroxycyclohexyl)-1,2-dihydro-3H-benzo[e]isoindol-3-one] |
| 1.9 | O=C1c2cc(CN3CCN(CC(F)(F)F)CC3)c3ccccc3c2CN1C1CCCCC1O (stereo not drawn) [Example 34, 2-(2-hydroxycyclohexyl)-5-{[4-(2,2,2-trifluoroethyl)piperazin-1-yl]methyl}-1,2-dihydro-3H-benzo[e]isoindol-3-one] |
| > 1.1 | CC1(O)CCN(Cc2cc3c(c4ccccc24)CN(C2CCCCC2O)C3=O)CC1 (stereo not drawn) [Example 37, 2-(2-hydroxycyclohexyl)-5-[(4-hydroxy-4-methylpiperidin-1-yl)methyl]-1,2-dihydro-3H-benzo[e]isoindol-3-one] |
| 0.67 | CC1(C)CCN(Cc2cc3c(c4ccccc24)CN(C2CCCCC2O)C3=O)CC1 (stereo not drawn) [Example 38, 5-[(4,4-dimethylpiperidin-1-yl)methyl]-2-(2-hydroxycyclohexyl)-1,2-dihydro-3H-benzo[e]isoindol-3-one] |
| 5.3 | O=C1c2cc(CN3CCC(C4CC4)CC3)c3ccccc3c2CN1C1CCCCC1O (stereo not drawn) [Example 39, 5-[(4-cyclopropylpiperidin-1-yl)methyl]-2-(2-hydroxycyclohexyl)-1,2-dihydro-3H-benzo[e]isoindol-3-one] |
| 1.4 | O=C1c2cc(CN3CCC(c4ccccc4)CC3)c3ccccc3c2CN1C1CCCCC1O (stereo not drawn) [Example 41, 2-(2-hydroxycyclohexyl)-5-[(4-phenylpiperidin-1-yl)methyl]-1,2-dihydro-3H-benzo[e]isoindol-3-one] |
| 0.24 | O=C1c2cc(CN3CCC(c4ccncc4)CC3)c3ccccc3c2CN1C1CCCCC1O (stereo not drawn) [Example 42, 2-(2-hydroxycyclohexyl)-5-[(4-(4-pyridinyl)piperidin-1-yl)methyl]-1,2-dihydro-3H-benzo[e]isoindol-3-one] |

| Structure (SMILES) | EC50 [µM] |
| --- | --- |
| O=C1c2cc(CN3CCC4(CC3)COc3ccccc34)c3ccccc3c2CN1C1CCCCC1O (stereo not drawn) [Example 40, 2-(2-hydroxycyclohexyl)-5-(1′H-spiro[1-benzofuran-3,4′-piperidin]-1′-ylmethyl)-1,2-dihydro-3H-benzo[e]isoindol-3-one] | 0.72 |
